Laboratory results reported in patent publication US8378104B2 (OSI Pharmaceuticals, LLC, priority 2010, dated 2013).

Target: T1, TAK1-TAB1 fusion protein (Homo sapiens, UniProt O43318)
T1 construct: purchased Carna
T1 sequence (O43318 with tags, fused parts or gaps limits assumed): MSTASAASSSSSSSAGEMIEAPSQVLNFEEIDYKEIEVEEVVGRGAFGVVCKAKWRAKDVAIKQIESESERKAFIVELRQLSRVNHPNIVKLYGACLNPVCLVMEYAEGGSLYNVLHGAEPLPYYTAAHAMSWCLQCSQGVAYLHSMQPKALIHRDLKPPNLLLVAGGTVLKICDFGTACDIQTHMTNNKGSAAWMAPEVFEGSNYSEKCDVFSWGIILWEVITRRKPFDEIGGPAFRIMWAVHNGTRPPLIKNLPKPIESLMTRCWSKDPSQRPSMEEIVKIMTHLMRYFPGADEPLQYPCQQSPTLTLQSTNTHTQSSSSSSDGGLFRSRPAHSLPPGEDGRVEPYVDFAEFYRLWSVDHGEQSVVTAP
Assay: TAK1 biochemical assay (AlphaScreen, GST-MAP2K7 substrate)
Settings: TAK1-TAB1 fusion protein, GST-MAP2K7 substrate; read-out: mean TAK1 IC50 (Col. A)

Row | Structure (SMILES) | IC50 [nM]
1 | CC(=O)N1CCC(n2cc(-c3cnc(N)c4oc(-c5ccnc6ccccc56)cc34)cn2)CC1 [Example 175, 1-(4-{4-[7-amino-2-(quinolin-4-yl)furo[2,3-c]pyridin-4-yl]-1H-pyrazol-1-yl}piperidin-1-yl)ethanone] | 100 to 1000
2 | CC(=O)N1CCC(n2cc(-c3cnc(N)c4oc(-c5cccc(CN)c5)cc34)cn2)CC1 [Example 178, 1-[4-(4-{7-amino-2-[3-(aminomethyl)phenyl]furo[2,3-c]pyridin-4-yl}-1H-pyrazol-1-yl)piperidin-1-yl]ethanone] | 100 to 1000
3 | CC(=O)N1CCC(n2cc(-c3cnc(N)c4oc(-c5ccc(CC#N)cc5)cc34)cn2)CC1 [Example 179, (4-{4-[1-(1-acetylpiperidin-4-yl)-1H-pyrazol-4-yl]-7-aminofuro[2,3-c]pyridin-2-yl}phenyl)acetonitrile] | 1000 to 10000
4 | CCCOc1cccc(-c2cc3c(-c4cnn(C5CCN(C(C)=O)CC5)c4)cnc(N)c3o2)c1 [Example 181, 1-(4-{4-[7-amino-2-(3-propoxyphenyl)furo[2,3-c]pyridin-4-yl]-1H-pyrazol-1-yl}piperidin-1-yl)ethanone] | > 10000
5 | COc1ccc(COc2cccc(-c3cc4c(-c5cnn(C6CCN(C(C)=O)CC6)c5)cnc(N)c4o3)c2)cc1 [Example 182, 1-{4-[4-(7-amino-2-{3-[(4-methoxybenzyl)oxy]phenyl}furo[2,3-c]pyridin-4-yl)-1H-pyrazol-1-yl]piperidin-1-yl}ethanone] | 1000 to 10000
6 | CC(=O)N1CCC(n2cc(-c3cnc(N)c4oc(-c5ccc(N)cc5)cc34)cn2)CC1 [Example 183, 1-(4-{4-[7-amino-2-(4-aminophenyl)furo[2,3-c]pyridin-4-yl]-1H-pyrazol-1-yl}piperidin-1-yl)ethanone] | 1000 to 10000
7 | CC(=O)N1CCC(n2cc(-c3cnc(N)c4oc(-c5ccc(CO)cc5)cc34)cn2)CC1 [Example 184, 1-[4-(4-{7-amino-2-[4-(hydroxymethyl)phenyl]furo[2,3-c]pyridin-4-yl}-1H-pyrazol-1-yl)piperidin-1-yl]ethanone] | 1000 to 10000
8 | CC(=O)N1CCC(n2cc(-c3cnc(N)c4oc(-c5cccc(C(F)(F)F)c5)cc34)cn2)CC1 [Example 185, 1-[4-(4-{7-amino-2-[3-(trifluoromethyl)phenyl]furo[2,3-c]pyridin-4-yl}-1H-pyrazol-1-yl)piperidin-1-yl]ethanone] | 1000 to 10000
9 | CC(=O)N1CCC(n2cc(-c3cnc(N)c4oc(-c5cccc(Oc6ccccc6)c5)cc34)cn2)CC1 [Example 186, 1-(4-{4-[7-amino-2-(3-phenoxyphenyl)furo[2,3-c]pyridin-4-yl]-1H-pyrazol-1-yl}piperidin-1-yl)ethanone] | > 10000
10 | CC(=O)N1CCC(n2cc(-c3cnc(N)c4oc(-c5cccc(OCC(F)(F)F)c5)cc34)cn2)CC1 [Example 187, 1-[4-(4-{7-amino-2-[3-(2,2,2-trifluoroethoxy)phenyl]furo[2,3-c]pyridin-4-yl}-1H-pyrazol-1-yl)piperidin-1-yl]ethanone] | 1000 to 10000
11 | CC(=O)N1CCC(n2cc(-c3cnc(N)c4oc(-c5c[nH]c6ccccc56)cc34)cn2)CC1 [Example 188, 1-(4-{4-[7-amino-2-(1H-indol-3-yl)furo[2,3-c]pyridin-4-yl]-1H-pyrazol-1-yl}piperidin-1-yl)ethanone] | > 10000
12 | CC(=O)N1CCC(n2cc(-c3cnc(N)c4oc(-c5cccc6ccncc56)cc34)cn2)CC1 [Example 190, 1-(4-{4-[7-amino-2-(isoquinolin-8-yl)furo[2,3-c]pyridin-4-yl]-1H-pyrazol-1-yl}piperidin-1-yl)ethanone] | 1000 to 10000
13 | CC(=O)c1ccccc1-c1cc2c(-c3cnn(C4CCN(C(C)=O)CC4)c3)cnc(N)c2o1 [Example 193, 1-(4-{4-[2-(2-acetylphenyl)-7-aminofuro[2,3-c]pyridin-4-yl]-1H-pyrazol-1-yl}piperidin-1-yl)ethanone] | 1000 to 10000
14 | CC(=O)N1CCC(n2cc(-c3cnc(N)c4oc(-c5ccccc5CO)cc34)cn2)CC1 [Example 194, 1-[4-(4-{7-amino-2-[2-(hydroxymethyl)phenyl]furo[2,3-c]pyridin-4-yl}-1H-pyrazol-1-yl)piperidin-1-yl]ethanone] | 100 to 1000
15 | COCc1ccccc1-c1cc2c(-c3cnn(C4CCN(C(C)=O)CC4)c3)cnc(N)c2o1 [Example 195, 1-[4-(4-{7-amino-2-[2-(methoxymethyl)phenyl]furo[2,3-c]pyridin-4-yl}-1H-pyrazol-1-yl)piperidin-1-yl]ethanone] | 1000 to 10000
16 | CC(=O)N1CCC(n2cc(-c3cnc(N)c4oc(-c5cccc6ccoc56)cc34)cn2)CC1 [Example 196, 1-(4-{4-[7-amino-2-(1-benzofuran-7-yl)furo[2,3-c]pyridin-4-yl]-1H-pyrazol-1-yl}piperidin-1-yl)ethanone] | > 10000
17 | CC(=O)N1CCC(n2cc(-c3cnc(N)c4oc(C5CCCC5)cc34)cn2)CC1 [Example 198, 1-{4-[4-(7-amino-2-cyclopentylfuro[2,3-c]pyridin-4-yl)-1H-pyrazol-1-yl]piperidin-1-yl}ethanone] | 1000 to 10000
18 | CC(=O)N1CCC(n2cc(-c3cnc(N)c4oc(-c5cccc(OCc6ccccn6)c5)cc34)cn2)CC1 [Example 199, 1-[4-(4-{7-amino-2-[3-(Pyridin-2-ylmethoxy)phenyl]furo[2,3-c]pyridin-4-yl}-1H-pyrazol-1-yl)piperidin-1-yl]ethanone] | 1000 to 10000
19 | COCCOc1cccc(-c2cc3c(-c4cnn(C5CCN(C(C)=O)CC5)c4)cnc(N)c3o2)c1 [Example 200, 1-[4-(4-{7-amino-2-[3-(2-methoxyethoxy)phenyl]furo[2,3-c]pyridin-4-yl}-1H-pyrazol-1-yl)piperidin-1-yl]ethanone] | 1000 to 10000
20 | CC(=O)N1CCC(n2cc(-c3cnc(N)c4oc(-c5cccc(OCc6cccc(Cl)c6)c5)cc34)cn2)CC1 [Example 201, 1-{4-[4-(7-amino-2-{3-[(3-chlorobenzyl)oxy]phenyl}furo[2,3-c]pyridin-4-yl)-1H-pyrazol-1-yl]piperidin-1-yl}ethanone] | > 10000
21 | CC(=O)N1CCC(n2cc(-c3cnc(N)c4oc(-c5cccc(OCc6cccnc6)c5)cc34)cn2)CC1 [Example 202, 1-[4-(4-{7-amino-2-[3-(pyridin-3-ylmethoxy)phenyl]furo[2,3-c]pyridin-4-yl}-1H-pyrazol-1-yl)piperidin-1-yl]ethanone] | 1000 to 10000
22 | CC(=O)N1CCC(n2cc(-c3cnc(N)c4oc(-c5cccc(OCc6ccncc6)c5)cc34)cn2)CC1 [Example 203, 1-[4-(4-{7-amino-2-[3-(pyridin-4-ylmethoxy)phenyl]furo[2,3-c]pyridin-4-yl}-1H-pyrazol-1-yl)piperidin-1-yl]ethanone] | 100 to 1000
23 | CC(=O)N1CCC(n2cc(-c3cnc(N)c4oc(-c5cccc(OCC(C)C)c5)cc34)cn2)CC1 [Example 204, 1-[4-(4-{7-amino-2-[3-(2-methylpropoxy)phenyl]furo[2,3-c]pyridin-4-yl}-1H-pyrazol-1-yl)piperidin-1-yl]ethanone] | > 10000
24 | CC(=O)N1CCC(n2cc(-c3cnc(N)c4oc(-c5cccc(OCc6ccc(Cl)cc6)c5)cc34)cn2)CC1 [Example 206, 1-{4-[4-(7-amino-2-{3-[(4-chlorobenzyl)oxy]phenyl}furo[2,3-c]pyridin-4-yl)-1H-pyrazol-1-yl]piperidin-1-yl}ethanone] | > 10000
